Key:
[1] = system: neonatal cardiac fibroblast; assay: Transwell migration of neonatal cardiac fibroblast induced by MMP-9 CD; type: cell-based, Wistar rats; settings: 1 µmol/L SalA, 200 nmol/L MMP-9 CD, 24 h (MMP-9 alone 85.2±12.4, Con 25.9±2.1)
Method: (§1) Primary cardiac fibroblast was obtained from neonatal rats and National Institutes of Health (NIH) Guide for the Care and Use of Laboratory Animals was followed throughout. Wistar rats (2–4 day old) were sacrificed by cervical dislocation; ventricles were minced and digested with 0.1% trypsin at 37°C for 8 min. The liberated cells were collected by centrifugations; non-digested chunk materials were further digested in 0.1% trypsin for an additional 8 min. This digestion procedure was repeated 3–4 times. All the liberated cells were pelleted by centrifugation at 1,000 rpm for 10 min, re-suspended in DMEM containing 10% fetal bovine serum (FBS), and cultured in a 100-mm noncoated culture flask at 37°C with 5% CO2 for 2 h. Adherent cardiac fibroblasts were collected and maintained in DMEM supplemented with 10% FBS, 100 U/mL penicillin, 100 µg/mL streptomycin [12]. […]
Transwell assay was employed to evaluate effects of SalA on neonatal cardiac fibroblast migration induced by MMP-9 CD. […] After incubating for 24 h, migrated cells (in the lower side of migration chamber) were stained with 0.1% crystal violet and counted with a microscope at 200 X magnification. Five to six view fields were counted on each membrane. Migration is expressed as the mean value of total number of migrated cells per field.

[2] = system: neonatal cardiac fibroblast; assay: Soluble collagen secretion (picrosirius red assay); type: cell-based, Wistar rats; settings: 24 h, p<0.05
Method: as §1, with “[12]. Cardiac fibroblasts were treated by vehicle (Con); 200 nmol/L MMP-9 CD (MMP-9); 200 nmol/L MMP-9 CD plus 1 µmol/L SalA [MMP-9/SalA(1)]; or 200 nmol/L MMP-9 CD plus 10 µmol/L SalA [MMP-9/SalA(10)] for the following research.” for “[12].”
Soluble collagen secreted by neonatal cardiac fibroblast was measured using picrosirius red assay with minor modification, [15]. […] 200 µL solution was transferred to 96 well plate for measuring absorbance at 595 nm using a UV spectrophotometer (Tecan GENios, Austria).

[3] = target: T1, MMP-9 CD (Homo sapiens, UniProt P14780, DEL217-390); assay: MMP-9 inhibition assay (thiopeptolide, enzyme kinetic analysis); type: biochemical
T1 construct: corresponding to residues 107–216 and 391–444; made in house
T1 sequence (P14780 with tags, fused parts or gaps DEL217-390 limits assumed): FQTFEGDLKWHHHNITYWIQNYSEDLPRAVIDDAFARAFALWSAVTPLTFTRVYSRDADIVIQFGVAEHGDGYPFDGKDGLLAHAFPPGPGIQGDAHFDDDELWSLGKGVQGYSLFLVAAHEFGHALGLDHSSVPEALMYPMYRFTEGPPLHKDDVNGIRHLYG
Method: Phenolic acids at the indicated concentrations were incubated with the reaction mixtures contained MMP-9 CD (15 nmol/L) and 5,5′-dithiobis-(2-nitrobenzoic acid) (1 mmol/L) at 4°C for 30 min. The reaction was initiated by the addition of thiopeptolide (Ac-Pro-Leu-Gly-S-Leu-Leu-Gly-OEt). Hydrolysis of thiopeptolide was monitored at 412 nm using Benchmark Plus™ microplate spectrophotometer (Bio-Rad) at room temperature. Kinetic analysis of phenolic acids against MMP-9 CD was calculated using double reciprocal plots of 1/V versus 1/[thiopeptolide]. The slope of every double reciprocal plot is the Km ^app/Vmax of enzyme at different compound concentration. Secondary plot was drawn through Km ^app/Vmax versus compound concentration. Km ^app is apparent value of Km; Ki is inhibition constant; Ki was calculated using the equation Ki = [Km/Vmax][compound]/(Km ^app/Vmax –Km/Vmax).

[4] = system: neonatal cardiac fibroblasts; assay: Myofibroblast transformation (α-SMA immunofluorescence) induced by MMP-9 CD; type: cell-based, Wistar rats; settings: 1 or 10 µmol/L SalA, 200 nmol/L MMP-9 CD, 24 h
Method: Primary cardiac fibroblast was obtained from neonatal rats and National Institutes of Health (NIH) Guide for the Care and Use of Laboratory Animals was followed throughout. Wistar rats (2–4 day old) were sacrificed by cervical dislocation; ventricles were minced and digested with 0.1% trypsin at 37°C for 8 min. The liberated cells were collected by centrifugations; non-digested chunk materials were further digested in 0.1% trypsin for an additional 8 min. This digestion procedure was repeated 3–4 times. All the liberated cells were pelleted by centrifugation at 1,000 rpm for 10 min, re-suspended in DMEM containing 10% fetal bovine serum (FBS), and cultured in a 100-mm noncoated culture flask at 37°C with 5% CO2 for 2 h. Adherent cardiac fibroblasts were collected and maintained in DMEM supplemented with 10% FBS, 100 U/mL penicillin, 100 µg/mL streptomycin [12]. Cardiac fibroblasts were treated by vehicle (Con); 200 nmol/L MMP-9 CD (MMP-9); 200 nmol/L MMP-9 CD plus 1 µmol/L SalA [MMP-9/SalA(1)]; or 200 nmol/L MMP-9 CD plus 10 µmol/L SalA [MMP-9/SalA(10)] for the following research. All the detections were conducted after 24 h treatment.
α-SMA expression was used to evaluate the effect of SalA on myofibroblast transformation from fibroblast induced by MMP-9 CD. Neonatal cardiac fibroblasts were cultured on glass slides until reaching ∼70% confluence. […]

[5] = target: T1, MMP-9 CD; assay: Real time binding by surface plasmon resonance (Biacore); settings: steady state affinity fit model; immobilized MMP-9 CD, 25°C; read-out: equilibrium dissociation constant (KD)
Method: DNA fragments encoding the catalytic domain of MMP-9 (MMP-9 CD, corresponding to residues 107–216 and 391–444) were constructed and subcloned into a pET-15b vector (Novagen). […]. Surface plasmon resonance analysis was performed using Biacore 3000 (Biacore AB). In brief, MMP-9 CD protein (5.8 µmol/L) in 10 mmol/L sodium acetate buffer (pH 3.73) was covalently immobilized on the hydrophilic carboxymethylated dextran matrix of the CM5 sensor chip (BIAcore AB) using standard primary amine coupling procedure. Phenolic acid at various concentrations in HBS-EP running buffer (10 mmol/L HEPES pH 7.4, 150 mmol/L NaCl, 3.4 mmol/L EDTA and 0.005% surfactant P20) were injected at a constant flow rate of 30 µL/min at 25°C. All data were analyzed by BIAevaluation software and the sensorgrams were processed by automatic correction for nonspecific bulk refractive index effects.

O=C(/C=C/c1ccc(O)c(O)c1/C=C/c1ccc(O)c(O)c1)O[C@H](Cc1ccc(O)c(O)c1)C(=O)O [SalA, salvianolic acid A]
migrated cells [1]: 45.3±9.1 cells per field | net collagen production in the presence of MMP-9 CD ([2]; 1 µmol/L SalA): significantly attenuated | net collagen production in the presence of MMP-9 CD ([2]; 10 µmol/L SalA): significantly attenuated | inhibition mode on MMP-9 ([3]; double reciprocal plots): competitively | Ki ([3]; spectrophotometric enzyme kinetic assay, thiopeptolide substrate): 5.74 ± 1.15 µM | α-SMA up-regulation (myofibroblast transformation) induced by MMP-9 CD [4]: reversed the effects of MMP-9 CD | Kd [5]: 0.8 µM
